From US20060251617A1, “Methods for treating lymphomas” (Chiron Corporation, priority 2005, published 2006)

How the values were obtained:
[1] = system: human B-cell lymphoma (Daudi) xenograft; test: Daudi xenograft model: IL-2 with CHOP and individual CHOP constituents (Example 2); assay type: in vivo, BALB/c nude mice; conditions: for Median Tumor Growth delay / Response rate (CR/PR): CR / Response rate (CR/PR): PR: Table 9, n = 10-20 mice/group; for CR/PR on day 28: CR: number of mice with complete response; for CR/PR on day 28: PR: number of mice with partial response; for Group Mean Days of Delay to 1000 mm^3: vs. control group
Description: (§1) Passaged, clonally derived Daudi cells (5×10^6 cells/mouse) were reconstituted with 50% Matrigel (BD Biosciences) in a total volume of 0.1 ml and implanted subcutaneously into the right flank of irradiated (3Gy) BALB/c nude mice. Treatments were initiated when the mean tumor volume was 150-300 mm^3. Mice were randomly assigned typically into 10 mice per group. […] Tumor volume is measured using calipers. Caliper measurements of tumors were converted into tumor volume (mm^3) using the formula: ½ (length (mm)×[width (mm)]^2). Tumor growth inhibition (TGI) was calculated as [1−(mean tumor volume of treated group/mean tumor volume of control group)×100]. […] Tumor growth delay (TGD) analysis was calculated as: [(number of days for a treated group to reach a mean tumor volume of 1000 mm^3)−(number of days for the control group to reach a mean tumor volume of 1000 mm^3)]. Percent conditional survival is the percent of mice in each group in which the tumor volume has not reached 1000 mm^3.
Athymic nude BALB/c mice (10 mice/group) were acclimated and irradiated mice were implanted with Daudi cells as described above. Treatment started when tumors were approximately 140 mm^3. This was designated study day 1.
Treatment groups were as follows:
Doxorubicin (H, adriamycin), 3.3 mg/kg, i.v, day 1;
Vincristine (O), 0.5 mg/kg, i.v, day 1;
Prednisone (P), 0.2 mg/kg p.o, days 1-5;
Proleukin® (IL-2), 1 mg/kg; s.c., thrice weekly for 4 weeks, total 12 doses;
Proleukin® (IL-2)+individual chemotherapeutics (as dosed individually, started on day 1);
Proleukin® (IL-2)+CHOP (similar dosing regimens to single agents, started on day 1).

[2] = system: Daudi lymphoma tumor model; test: Pooled Daudi xenograft studies and assessment of synergistic activity (Example 5); assay type: in vivo, BALB/c nude mice; conditions: pooled studies; for Tumor response CR / Tumor response PR: number of mice, (n) in cell; for Tumor response RR: response rate; for TGI: vs. vehicle
Description: as §1
(§2) Multiple comparisons were performed using one-way analysis of variance (ANOVA); post-test to compare different treatment means was done using Student-Newman Keuls test (SigmaStat). Tumor growth delay for each animal (time to 1000 mm^3) was used as the endpoint for conditional survival, and significance between treatments was analysed using a log rank test (Prism). Mice that had no visible tumors at necropsy upon termination of the study were considered censored in this analysis. Differences were considered statistically significant at p<0.05.
Several studies of these agents and combinations of these agents were performed in the Daudi lymphoma tumor model. The data from these multiple experiments were then pooled together for further analysis (Table 10). In vivo drug synergy was evaluated from the response index of combination treatments using multiple drug effect analyses.

[3] = system: human B-cell lymphoma (Daudi) xenograft; test: Daudi xenograft model of human B-cell lymphoma: IL-2/CHOP/rituximab regimens (Example 1); assay type: in vivo, BALB/c nude mice
Description: as §1, §2
See, e.g., Hudson et al., Leukemia (1998) 12:2029-2033 for a description of the Daudi xenograft model. The Daudi/BALB/c nude model expresses high levels of CD20 and is associated with a less aggressive/low grade disease profile. Furthermore, NK cells cannot lyse Daudi tumor cells in the absence of activation by cytokines such as IL-2. See, e.g., Damle et al., J. Immunol. (1987) 138:1779-1785.
120 athymic nude BALB/c mice were acclimated for 1 week to the inoculation of Daudi human B-cell lines. Daudi cells (5×10^6 cells/mouse) were implanted s.c. (right flank) into irradiated young nude mice (3Gy for approximately 3.2 minutes) with 50% matrigel at a volume of 0.1 ml and grown as subcutaneous tumors until tumor volume reached 110 mm^3. This was designated study day 1.
Clinical observations were noted.

[4] = mouse, in vivo
Description: (§3) Proleukin® treatment (1 mg/kg; s.c., thrice weekly) commenced either concomitantly (on day 8) or one week later (day 15) for a total of 4 weeks. […] Tumor volumes and body weights were measured two times per week. Clinical observations were noted.

[5] = Body weight, clinical observations and tolerability in Daudi tumor-bearing mice; conditions: Example 5
Description: as §3

Row | Molecule | Median Tumor Growth delay [1] [days] | Response rate (CR/PR): CR [1] | Response rate (CR/PR): PR [1] | CR/PR on day 28: CR [1] | CR/PR on day 28: PR [1] | Group Mean Days of Delay to 1000 mm^3 [1] [days] | Growth delay [2] [days] | Tumor response CR [2] | Tumor response PR [2] | Tumor response RR [2] | TGI [2] | also measured
1 | CC[C@]1(O)C[C@H]2CN(CCc3c([nH]c4ccccc34)[C@@](C(=O)OC)(c3cc4c(cc3OC)N(C=O)[C@H]3[C@@](O)(C(=O)OC)[C@H](OC(C)=O)[C@]5(CC)C=CCN6CC[C@]43[C@@H]65)C2)C1 [Vincristine] | 12 | 0/0 | 0/0 | 0/0 | 0/0 | 12 | 12 | 0%; 0/0 (10) | 0%; 0/0 (10) | 0%; 0/0 (10) |  | 
2 | COc1cccc2c1C(=O)c1c(O)c3c(c(O)c1C2=O)C[C@@](O)(C(=O)CO)C[C@@H]3O[C@H]1C[C@H](N)[C@H](O)[C@H](C)O1 [Doxorubicin] | 2 | 0/0 | 0/0 | 0/0 | 0/0 | 2 | 2 | 0%; 0/0 (10) | 0%; 0/0 (10) | 0%; 0/0 (10) | 9%, p > 0.05 | 
3 | des-alanyl-1, serine-125 human interleukin-2 [IL-2] | 2 | 0/0 | 0/0 | 0/0 | 0/0 | 2 | 2 | 2 | 1 | 5% |  | CR/PR day 29: CR ([3]; mouse, in vivo): 0/0; CR/PR day 29: PR ([3]; mouse, in vivo): 0/0; CR/PR day 164: CR ([3]; mouse, in vivo): 1/0; CR/PR day 164: PR ([3]; mouse, in vivo): 1/0; tumor growth / efficacy in words ([3]; mouse, in vivo): significantly inhibited tumor growth; median conditional survival (days to 1000 mm3) ([3]; time for tumor to reach 1000 mm3): 25 days; TGI day 29 ([3]; tumor growth inhibition vs. vehicle, day 29, n = 10): 33.52%; % max BW. change (day, range) [4]: 12(+8 to +14) day 39%; Clinical Observation [4]: BAR; tolerability [5]: well-tolerated
4 | C[C@]12C=CC(=O)C=C1CC[C@@H]1[C@@H]2C(=O)C[C@@]2(C)[C@H]1CC[C@]2(O)C(=O)CO [Prednisone] | 2 | 1 | 0 | 1 | 0 | 2 | 2 | 1 | 0 | 10% | 10%, p > 0.05 | 
5 | O=P1(N(CCCl)CCCl)NCCCO1 (stereo not drawn) [Cyclophosphamide, cyclophosphamide] | 1 | 0/0 | 0/0 | 0/0 | 0/0 | 1 | 1 | 0%; 0/0 (10) | 0%; 0/0 (10) | 0%; 0/0 (10) | 2%, p > 0.05 | 
